In ChEMBL document CHEMBL5303573, “Mapping human microbiome drug metabolism by gut bacteria and their genes” (Nature, 2019):

What was measured:
[1] = The drug is tested on Collinsella intestinalis strain: DSM13280 for biotransformation. The drug concentrations were measured before and after a 12-h incubation by liquid-chromatography-coupled mass spectrometry (LC–MS); conditions: 2 µM
[2] = The drug is tested on Bacteroides caccae strain: ATCC43185 for biotransformation. The drug concentrations were measured before and after a 12-h incubation by liquid-chromatography-coupled mass spectrometry (LC–MS); conditions: 2 µM
[3] = The drug is tested on Bacteroides cellulosilyticus strain: DSM14838 for biotransformation. The drug concentrations were measured before and after a 12-h incubation by liquid-chromatography-coupled mass spectrometry (LC–MS); conditions: 2 µM
[4] = The drug is tested on Bacteroides finegoldii strain: DSM17565 for biotransformation. The drug concentrations were measured before and after a 12-h incubation by liquid-chromatography-coupled mass spectrometry (LC–MS); conditions: 2 µM
[5] = The drug is tested on Parabacteroides merdae strain: ATCC43184 for biotransformation. The drug concentrations were measured before and after a 12-h incubation by liquid-chromatography-coupled mass spectrometry (LC–MS); conditions: 2 µM
[6] = The drug is tested on Anaerococcus hydrogenalis strain: DSM7454 for biotransformation. The drug concentrations were measured before and after a 12-h incubation by liquid-chromatography-coupled mass spectrometry (LC–MS); conditions: 2 µM
[7] = The drug is tested on Anaerotruncus colihominis strain: DSM17241 for biotransformation. The drug concentrations were measured before and after a 12-h incubation by liquid-chromatography-coupled mass spectrometry (LC–MS); conditions: 2 µM
[8] = The drug is tested on Blautia luti strain: DSM14534 for biotransformation. The drug concentrations were measured before and after a 12-h incubation by liquid-chromatography-coupled mass spectrometry (LC–MS); type: ADME; design: dose 2 uM, timepoint 0 vs 12 hours; conditions: 2 µM
[9] = The drug is tested on Clostridium scindens strain: ATCC35704 for biotransformation. The drug concentrations were measured before and after a 12-h incubation by liquid-chromatography-coupled mass spectrometry (LC–MS); conditions: 2 µM
[10] = The drug is tested on Ruminococcus gnavus strain: ATCC29149 for biotransformation. The drug concentrations were measured before and after a 12-h incubation by liquid-chromatography-coupled mass spectrometry (LC–MS); conditions: mediterraneibacter gnavus, 2 µM
[11] = The drug is tested on Edwardsiella tarda strain: ATCC23685 for biotransformation. The drug concentrations were measured before and after a 12-h incubation by liquid-chromatography-coupled mass spectrometry (LC–MS); conditions: 2 µM
[12] = The drug is tested on Enterobacter cancerogenus strain: ATCC35316 for biotransformation. The drug concentrations were measured before and after a 12-h incubation by liquid-chromatography-coupled mass spectrometry (LC–MS); conditions: 2 µM
[13] = The drug is tested on Providencia rettgeri strain: DSM1131 for biotransformation. The drug concentrations were measured before and after a 12-h incubation by liquid-chromatography-coupled mass spectrometry (LC–MS); type: ADME; design: dose 2 uM, timepoint 0 vs 12 hours; conditions: 2 µM
[14] = bacteroides stercoris, 12 h, 2 µM
Description: The drug is tested on Bacteroides stercoris strain: ATCC43183 for biotransformation. The drug concentrations were measured before and after a 12-h incubation by liquid-chromatography-coupled mass spectrometry (LC–MS)

[15] = bacteroides thetaiotaomicron, 12 h, 2 µM
Description: The drug is tested on Bacteroides thetaiotaomicron strain: 3731 for biotransformation. The drug concentrations were measured before and after a 12-h incubation by liquid-chromatography-coupled mass spectrometry (LC–MS)

[16] = The drug is tested on Bacteroides fragilis strain: ATCC43859 for biotransformation. The drug concentrations were measured before and after a 12-h incubation by liquid-chromatography-coupled mass spectrometry (LC–MS); conditions: 2 µM
[17] = The drug is tested on Clostridium sp. strain: fecal isolate for biotransformation. The drug concentrations were measured before and after a 12-h incubation by liquid-chromatography-coupled mass spectrometry (LC–MS); conditions: 2 µM
[18] = The drug is tested on Clostridium sporogenes strain: ATCC15579 for biotransformation. The drug concentrations were measured before and after a 12-h incubation by liquid-chromatography-coupled mass spectrometry (LC–MS); conditions: 2 µM
[19] = parabacteroides distasonis, 12 h, 2 µM
Description: The drug is tested on Parabacteroides distasonis strain: ATCC8503 for biotransformation. The drug concentrations were measured before and after a 12-h incubation by liquid-chromatography-coupled mass spectrometry (LC–MS)

| Compound | Bacterial Biotransformation [1] | Bacterial Biotransformation [2] | Bacterial Biotransformation [3] | Bacterial Biotransformation [4] | Bacterial Biotransformation [5] | Bacterial Biotransformation [6] | Bacterial Biotransformation [7] | Bacterial Biotransformation [8] | Bacterial Biotransformation [9] | Bacterial Biotransformation [10] | Bacterial Biotransformation [11] | Bacterial Biotransformation [12] | Bacterial Biotransformation [13] | Bacterial Biotransformation [14] | Bacterial Biotransformation [15] | Bacterial Biotransformation [16] | Bacterial Biotransformation [17] | Bacterial Biotransformation [18] | Bacterial Biotransformation [19] |
| --- | --- | --- | --- | --- | --- | --- | --- | --- | --- | --- | --- | --- | --- | --- | --- | --- | --- | --- | --- |
| CCC1(c2ccc(N)cc2)CCC(=O)NC1=O (configuration not stated) [AMINOGLUTETHIMIDE] | Compound NOT metabolized | Compound NOT metabolized | Compound NOT metabolized | Compound NOT metabolized | Compound NOT metabolized | Compound NOT metabolized | Compound NOT metabolized | Compound NOT metabolized | Compound NOT metabolized | Compound NOT metabolized | Compound NOT metabolized | Compound NOT metabolized | Compound NOT metabolized | Compound NOT metabolized | Compound NOT metabolized | – | – | – | – |
| CC(C)NCC(O)COc1ccc(CCOCC2CC2)cc1 (configuration not stated) [BETAXOLOL] | Compound NOT metabolized | Compound NOT metabolized | – | Compound NOT metabolized | Compound NOT metabolized | Compound NOT metabolized | Compound NOT metabolized | Compound NOT metabolized | Compound NOT metabolized | Compound NOT metabolized | Compound NOT metabolized | – | Compound NOT metabolized | Compound NOT metabolized | Compound NOT metabolized | Compound NOT metabolized | Compound NOT metabolized | Compound NOT metabolized | – |
| CC(C)NCC(O)COc1ccc(COCCOC(C)C)cc1.CC(C)NCC(O)COc1ccc(COCCOC(C)C)cc1.O=C(O)/C=C/C(=O)O (configuration not stated) [BISOPROLOL FUMARATE] | Compound NOT metabolized | Compound NOT metabolized | Compound NOT metabolized | Compound NOT metabolized | Compound NOT metabolized | Compound NOT metabolized | Compound NOT metabolized | Compound NOT metabolized | Compound NOT metabolized | Compound NOT metabolized | Compound NOT metabolized | – | Compound NOT metabolized | Compound NOT metabolized | Compound NOT metabolized | Compound NOT metabolized | Compound NOT metabolized | Compound NOT metabolized | – |
| CN/C(=N/CCSCc1nc[nH]c1C)NC#N [CIMETIDINE] | Compound NOT metabolized | – | Compound NOT metabolized | – | Compound NOT metabolized | Compound NOT metabolized | Compound NOT metabolized | Compound NOT metabolized | – | Compound NOT metabolized | Compound NOT metabolized | Compound NOT metabolized | Compound NOT metabolized | Compound NOT metabolized | Compound metabolized | – | – | – | Compound NOT metabolized |
| Br.CN(C)CCCC1(c2ccc(F)cc2)OCc2cc(C#N)ccc21 (configuration not stated) [CITALOPRAM HYDROBROMIDE] | Compound NOT metabolized | Compound NOT metabolized | – | Compound NOT metabolized | Compound NOT metabolized | Compound NOT metabolized | Compound NOT metabolized | Compound NOT metabolized | Compound NOT metabolized | Compound NOT metabolized | Compound NOT metabolized | – | Compound NOT metabolized | Compound NOT metabolized | Compound NOT metabolized | Compound NOT metabolized | Compound NOT metabolized | Compound NOT metabolized | – |
| CN(C)CCC=C1c2ccccc2C=Cc2ccccc21 [CYCLOBENZAPRINE] | Compound NOT metabolized | Compound NOT metabolized | – | Compound NOT metabolized | Compound NOT metabolized | Compound NOT metabolized | Compound NOT metabolized | Compound NOT metabolized | Compound NOT metabolized | Compound NOT metabolized | Compound NOT metabolized | Compound NOT metabolized | – | Compound NOT metabolized | – | – | Compound metabolized | – | Compound NOT metabolized |
| CC(=O)SCC(Cc1ccccc1)C(=O)NCC(=O)OCc1ccccc1 (configuration not stated) [RACECADOTRIL] | Compound NOT metabolized | – | Compound metabolized | Compound metabolized | Compound metabolized | – | – | – | – | Compound NOT metabolized | – | – | Compound NOT metabolized | Compound metabolized | Compound metabolized | – | Compound metabolized | Compound metabolized | Compound metabolized |
